Data set [1] deals with Escherichia coli. Description: Antimicrobial activity against Escherichia coli TOP10 by agar dilution method in presence of beta-lactam inhibitor Tazobactam. Type of data set: functional.
Data set [2] has as its system Stutzerimonas stutzeri. Description: Antimicrobial activity against Pseudomonas stutzeri clinical isolate expressing beta-lactamase DIM-1 by agar dilution method. Type of data set: functional. (In agar dilution, organisms are placed on agar that contains the substance at set levels.)
The test system of data set [3] is Escherichia coli. Description: Antimicrobial activity against Escherichia coli TOP10 harboring beta-lactamase DIM-1 by agar dilution method. Type of data set: functional.
The subject of data set [4] is Escherichia coli. Description: Antimicrobial activity against Escherichia coli TOP10 by agar dilution method. Type of data set: functional.
The subject of data set [5] is Escherichia coli. Description: Antimicrobial activity against Escherichia coli TOP10 harboring beta-lactamase DIM-1 by agar dilution method in presence of beta-lactam inhibitor Tazobactam. It counts as functional.
Data set [6] has as its system Stutzerimonas stutzeri. Description: Antimicrobial activity against Pseudomonas stutzeri clinical isolate expressing beta-lactamase DIM-1 by agar dilution method in presence of beta-lactam inhibitor Tazobactam. It counts as functional.
For data set [7], the target named is T1, Metallo-beta-lactamase (Pseudomonas stutzeri) (UniProt D5JGF6).
T1 sequence (whole entry): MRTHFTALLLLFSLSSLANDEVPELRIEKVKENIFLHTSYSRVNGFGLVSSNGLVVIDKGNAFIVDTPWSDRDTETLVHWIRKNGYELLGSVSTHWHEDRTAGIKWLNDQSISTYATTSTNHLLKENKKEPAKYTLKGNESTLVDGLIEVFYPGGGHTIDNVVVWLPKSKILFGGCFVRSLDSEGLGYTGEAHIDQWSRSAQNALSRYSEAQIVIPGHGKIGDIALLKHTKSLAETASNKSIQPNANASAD
Description: Ratio of Kcat to Km for Pseudomonas stutzeri beta-lactamase DIM-1by UV-spectrophotometry. Further details: unit not given here. To be noted: Stutzerimonas stutzeri.

Data set [8] has as its system Stutzerimonas stutzeri. Kind of data set: Antimicrobial activity against Pseudomonas stutzeri clinical isolate expressing beta-lactamase DIM-1 by agar dilution method in presence of beta-lactam inhibitor clavulanic acid. Type of data set: functional.
Data set [9] deals with Escherichia coli. Kind of data set: Antimicrobial activity against Escherichia coli TOP10 harboring beta-lactamase DIM-1 by agar dilution method in presence of beta-lactam inhibitor clavulanic acid. Type of data set: functional.
The test system of data set [10] is Escherichia coli. Description: Antimicrobial activity against Escherichia coli TOP10 by agar dilution method in presence of beta-lactam inhibitor clavulanic acid. It counts as functional.
Substrate in data set [11]: CC(=O)OCC1=C(C(=O)O)N2C(=O)[C@@H](NC(=O)Cc3cccs3)[C@H]2SC1
Description: (§1) Activity of Pseudomonas stutzeri beta-lactamase DIM-1 by UV-spectrophotometry. As to conditions: Stutzerimonas stutzeri.

Substrate in data set [12]: CC1(C)S[C@@H]2[C@H](NC(=O)[C@H](C(=O)O)c3ccsc3)C(=O)N2[C@H]1C(=O)O
The description is as §1. As to conditions: Stutzerimonas stutzeri.

Substrate in data set [13]: CC(C)(O/N=C(\C(=O)N[C@@H]1C(=O)N2C(C(=O)[O-])=C(C[n+]3ccccc3)CS[C@H]12)c1csc(N)n1)C(=O)O
The data set is described as §1. As to conditions: Stutzerimonas stutzeri.

Substrate in data set [14]: CC1(C)S[C@@H]2[C@H](NC(=O)[C@H](N)c3ccccc3)C(=O)N2[C@H]1C(=O)O
Described as §1. To be noted: Stutzerimonas stutzeri.

Substrate in data set [15]: CC1(C)S[C@@H]2[C@H](NC(=O)Cc3ccccc3)C(=O)N2[C@H]1C(=O)O
The data set is described as §1. As to conditions: Stutzerimonas stutzeri.

Substrate in data set [16]: C[C@H]1[C@H](NC(=O)/C(=N\OC(C)(C)C(=O)O)c2csc(N)n2)C(=O)N1S(=O)(=O)O
Described as §1. To be noted: Stutzerimonas stutzeri.

Substrate in data set [17]: CO[C@@]1(NC(=O)Cc2cccs2)C(=O)N2C(C(=O)O)=C(COC(N)=O)CS[C@@H]21
The description is as §1. To be noted: Stutzerimonas stutzeri.

Substrate in data set [18]: CO/N=C(\C(=O)N[C@@H]1C(=O)N2C(C(=O)[O-])=C(C[N+]3(C)CCCC3)CS[C@H]12)c1csc(N)n1
The description is as §1. To be noted: Stutzerimonas stutzeri.

Substrate in data set [19]: C[C@@H](O)[C@H]1C(=O)N2C(C(=O)O)=C(S[C@@H]3CN[C@H](C(=O)N(C)C)C3)[C@H](C)[C@H]12
Described as §1. To be noted: Stutzerimonas stutzeri.

Substrate in data set [20]: C[C@@H](O)[C@H]1C(=O)N2C(C(=O)O)=C(SCCNC=N)C[C@H]12
The description is as §1. As to conditions: Stutzerimonas stutzeri.

Substrate in data set [21]: CO/N=C(\C(=O)N[C@@H]1C(=O)N2C(C(=O)O)=C(COC(C)=O)CS[C@H]12)c1csc(N)n1
The data set is described as §1. To be noted: Stutzerimonas stutzeri.

Converted amounts (≈) assume the structure as drawn.

As a reminder, the MIC is the lowest concentration found to suppress growth. With `CCN1CCN(C(=O)N[C@@H](C(=O)N[C@@H]2C(=O)N3[C@@H]2SC(C)(C)[C@@H]3C(=O)O)c2ccccc2)C(=O)C1=O` [PIPERACILLIN], the MIC with Escherichia coli [1] is 1 µg/mL; with Stutzerimonas stutzeri [2] it was > 512 µg/mL; against Escherichia coli [3], > 512 µg/mL; with Escherichia coli [4], 1 µg/mL (≈ 1.93 µM); in the data set on Escherichia coli [5], 512 µg/mL; in the data set on Stutzerimonas stutzeri [6], 512 µg/mL.

Consider `CO[C@@]1(NC(=O)Cc2cccs2)C(=O)N2C(C(=O)O)=C(COC(N)=O)CS[C@@H]21` [CEFOXITIN], for which the MIC with Stutzerimonas stutzeri [2] was found to be 512 µg/mL (≈ 1200 µM); against Escherichia coli [3], 512 µg/mL (≈ 1200 µM); in the data set with Escherichia coli [4], 4 µg/mL (≈ 9.36 µM). Besides, the Ratio in data set [7] amounted to 400.

As to `CC1(C)S[C@@H]2[C@H](NC(=O)[C@H](N)c3ccc(O)cc3)C(=O)N2[C@H]1C(=O)O` [AMOXICILLIN], the MIC against Stutzerimonas stutzeri [2] is > 512 µg/mL; with Escherichia coli [3], > 512 µg/mL; in the data set on Stutzerimonas stutzeri [8], > 512 µg/mL; against Escherichia coli [4], 4 µg/mL (≈ 10.9 µM); with Escherichia coli [9], > 512 µg/mL; with Escherichia coli [10], 4 µg/mL.

For `CC1(C)S[C@@H]2[C@H](NC(=O)[C@H](N)c3ccccc3)C(=O)N2[C@H]1C(=O)O`, the Ratio in [7] came out at 180.

In the case of `C[C@@H](O)[C@H]1C(=O)N2C(C(=O)O)=C(S[C@@H]3CN[C@H](C(=O)N(C)C)C3)[C@H](C)[C@H]12`, the Ratio in data set [7] stood at 200.

For the molecule `CC1(C)S[C@@H]2[C@H](NC(=O)Cc3ccccc3)C(=O)N2[C@H]1C(=O)O`, in data set [7], the Ratio worked out at 2800.

As to `CC(C)(O/N=C(\C(=O)N[C@@H]1C(=O)N2C(C(=O)[O-])=C(C[n+]3ccccc3)CS[C@H]12)c1csc(N)n1)C(=O)O` [CEFTAZIDIME], the MIC against Stutzerimonas stutzeri [2] was found to be 8 µg/mL (≈ 14.6 µM); in the data set with Escherichia coli [3], 256 µg/mL (≈ 468 µM); in the data set on Escherichia coli [4], 0.06 µg/mL (≈ 0.11 µM). Besides, the Ratio in [7] came out at 60.

Consider `C[C@H]1[C@H](NC(=O)/C(=N\OC(C)(C)C(=O)O)c2csc(N)n2)C(=O)N1S(=O)(=O)O` [AZTREONAM], for which the MIC in the data set with Escherichia coli [3] was 0.25 µg/mL (≈ 0.574 µM).

On to `CC(=O)OCC1=C(C(=O)O)N2C(=O)[C@@H](NC(=O)Cc3cccs3)[C@H]2SC1`, for which the Ratio in [7] turned out to be 5000.

For the molecule `CO/N=C(\C(=O)N[C@@H]1C(=O)N2C(C(=O)O)=C(COC(C)=O)CS[C@H]12)c1csc(N)n1` [CEFOTAXIME], the MIC with Stutzerimonas stutzeri [2] was found to be 512 µg/mL (≈ 1120 µM); in the data set with Escherichia coli [3], 256 µg/mL (≈ 562 µM); in the data set with Escherichia coli [4], 0.12 µg/mL (≈ 0.263 µM). Besides, in [7], the Ratio is 3000.

`CO/N=C(\C(=O)N[C@@H]1C(=O)N2C(C(=O)[O-])=C(C[N+]3(C)CCCC3)CS[C@H]12)c1csc(N)n1`: the MIC with Escherichia coli [3] was 1 µg/mL (≈ 2.08 µM).

With `CC1(C)S[C@@H]2[C@H](NC(=O)[C@H](C(=O)O)c3ccsc3)C(=O)N2[C@H]1C(=O)O` [TICARCILLIN], the MIC with Stutzerimonas stutzeri [2] is > 512 µg/mL; against Escherichia coli [3], > 512 µg/mL; in the data set with Stutzerimonas stutzeri [8] it was > 512 µg/mL; against Escherichia coli [4], 4 µg/mL (≈ 10.4 µM); in the data set with Escherichia coli [9], > 512 µg/mL; in the data set on Escherichia coli [10], 4 µg/mL. Moreover, the Ratio in data set [7] amounted to 15000.

`C[C@@H](O)[C@H]1C(=O)N2C(C(=O)O)=C(SCCNC=N)C[C@H]12` [IMIPENEM ANHYDROUS]: the minimal inhibitory concentration (MIC) was determined as 64 µg/mL (≈ 214 µM) against Stutzerimonas stutzeri [2] and 2 µg/mL (≈ 6.68 µM) with Escherichia coli [3]. Moreover, in data set [7], the Ratio amounted to 440.

B1: Metallo-beta-lactamase (Pseudomonas stutzeri), D5JGF6 (protein)
chain: T1 sequence (whole entry)
Usually Km stands for the substrate concentration at which the rate is half of its maximum. As usually defined, the kcat is the number of substrate molecules converted per active site and unit of time at saturation. As to B1, the Km was 6 µM in [11]; 80 µM in data set [12]; 50 µM in [13]; 110 µM in [14]; 90 µM in data set [15]; 20 µM in data set [17]. The Km in [18] was determined as 220 µM; in data set [19], 20 µM; in [20], 80 µM; in [21], 3.5 µM. The kcat was 30 s⁻¹ in data set [11]; 250 s⁻¹ in data set [12]; 3 s⁻¹ in data set [13]; 20 s⁻¹ in data set [14]; 250 s⁻¹ in [15]; < 0.01 s⁻¹ in [16]. In addition, the kcat in [17] is 8 s⁻¹; in [18] it was 3 s⁻¹; in data set [19], 4 s⁻¹; in data set [20] it was 35 s⁻¹; in data set [21] it was 10 s⁻¹.

For the origin of these results see ChEMBL document CHEMBL1255480, “Characterization of DIM-1, an integron-encoded metallo-beta-lactamase from a Pseudomonas stutzeri clinical isolate in the Netherlands” (2010).
